The results in this text go back to patent US9168247B2, “Beta carboline derivatives useful in the treatment of proliferative disorders” (FACULTES UNIVERSITAIRES NOTRE DAME DE LA PAIX, priority 2010, dated 2015).

The assay concerns the target DYRK1A protein kinase (Homo sapiens (Human), UniProt Q13627). Kind of assay: Radiometric protein kinase assay (33PanQinase Activity Assay). It is filed as biochemical. The settings on record: 10 concentrations in triplicate, 1 μM ATP; read-out: IC50: Concentration of drug (μM) needed in order to inhibit dyrk1A kinase activity by 50%. As to the method:
The IC50 profile of JR212, JR220, JR84, CV12, CV24, and JR95 was determined on DYRK1A protein kinase. […] Compound cv12 was tested in the range from about 5×10^−5 M to about 1.5×10^−9 M in triplicate.
A radiometric protein kinase assay (33PanQinase® Activity Assay) was used for measuring the kinase activity of DYRK1A protein kinase. All kinase assays were performed in 96-well FlashPlates™ from Perkin Elmer (Boston, Mass., USA) in a 50 μl reaction volume. The reaction cocktail was pipetted in four steps in the following order: 20 μl of assay buffer (standard buffer); 5 μl of [γ-33P]-ATP solution (in H2O); 5 μl of test compound (in 10% DMSO); 10 μl of substrate/10 μl of enzyme solution (premixed).
The assay contained 60 mM HEPES-NaOH, pH 7.5, 3 mM MgCl2, 3 mM MnCl2, 3 μM Na-orthovanadate, 1.2 mM DTT, 50 μg/ml PEG20000, 1 μM [γ-^33P]-ATP (approx. 3×10^5 cpm per well), protein kinase, and substrate.
For the determination of inhibitory profiles, DYRK1A protein kinase was used, which was purchased from Invitrogen Corporation. The kinase was expressed in […] as human recombinant GST-fusion protein by means of the baculovirus expression system. According to the data sheet, the purity of the kinase was checked by SDS-PAGE/Coomassie staining and the identity of the kinase was verified by mass spectroscopy. About 5 ng/50 μl (about 0.9 nM) of dyrk1A kinase and about 2000 ng/50 μl of substrate (RBER-CHKtide) are used in each assay.
The reaction cocktails were incubated at 30° C. for 60 minutes. The reaction was stopped with 50 μl of 2% (v/v) H3PO4, plates were aspirated and washed two times with 200 μl 0.9% (w/v) NaCl. Incorporation of ^33P was determined with a microplate scintillation counter (Microbeta, Wallac).
All assays were performed with a BeckmanCoulter/SAGIAN™ Core System.
For each plate, the median value of the cpm of the wells with complete reaction cocktails, but without kinase or compound to be tested, was defined as “low control” (n=8). This value reflects unspecific binding of radioactivity to the plate in the absence of protein kinase but in the presence of the substrate. Additionally, for each plate the median value of the cpm of the wells with the complete reaction cocktail, but without any compound, was taken as the “high control”, i.e., full activity in the absence of any inhibitor (n=8). The difference between high and low control of was taken as 100% activity for each kinase. As part of the data evaluation the “low control” value from a particular plate was subtracted from the “high control” value as well as from all 80 “compound values” of the corresponding plate. The residual activity (in %) for each compound well was calculated by using the following formula: Res. Activity (%)=100×[(cpm of compound−low control)/(high control−low control)].
Regarding `Cc1nccc2c3ccc(OCc4ccccc4)cc3n(Cc3ccccc3)c12` [CV9/JR84, 1-methyl-7-benzyloxy-9-benzyl-β-carboline], the IC50 was found to be 16.3 µM.
For `Cc1c2c(cc[n+]1Cc1ccccc1)c1ccc(OCc3ccccc3)cc1n2Cc1ccccc1.[Br-]` [CV21/JR95, 1-methyl-2-benzyl-7-benzyloxy-9-benzyl-β-carbolin-2-ium bromide] the value was 21.2 µM; for `Cc1nccc2c1[nH]c1cc(OCc3cccnc3)ccc12` [JR212], 10 µM; for `COCCOc1ccc2c(c1)[nH]c1c(C)nccc12` [JR220], 15.5 µM.
